Results reported in US11091428B2 (HAPLOGEN GMBH, priority 2016, dated 2021).
pEC50, pIC50: −log10 of the molar value.

Key:
[1] = tested on: picornaviruses (CVB1, HRV-A2, HRV-A23, EV-68); assay: Anti-picornavirus cytopathic effect (CPE) reduction assay on HeLa H1 cells; format: cell-based; conditions: Enterovirus B, HeLa H1, 48 h, HeLa H1 cells, 48 h, category from averaging the EC50 values from four picornaviruses (CVB1, HRV-A2, HRV-A23, EV68); read-out: EC50 values of the compounds determined in the anti-picornavirus assay
Summary of the method: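 Cytopathic-effect protection: EC50 from non-linear regression of cell viability (CellTiterBlue, 560/590 nm) 48 h post-infection, scaled between infected and mock-infected vehicle wells. Compound dilutions added to HeLa H1 cells 2 h before virus (MOI causing complete CPE within 2 days), in DMEM + 2% FBS; categories average the four viruses.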

[2] = molecular target: T1, PLA2G16 (Homo sapiens, UniProt P53816); assay: Enzyme activity assay for PLA2G16 (Red/Green BODIPY PC-A2 fluorescence); format: biochemical; conditions: His-tagged PLA2G16, 4 min pre-incubation, 2 nM to 50 μM; read-out: IC50 values of the compounds determined in the enzyme activity assay for PLA2G16
T1 construct: Hexa-His (N); made in house; host or cells: E. coli BL21(DE3)
T1 sequence (P53816 1-162): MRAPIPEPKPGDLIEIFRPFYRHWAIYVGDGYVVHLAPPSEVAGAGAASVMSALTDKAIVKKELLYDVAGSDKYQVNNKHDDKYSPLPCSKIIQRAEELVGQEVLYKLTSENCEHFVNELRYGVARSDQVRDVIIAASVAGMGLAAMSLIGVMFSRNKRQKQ
Summary of the method: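 IC50 from non-linear fits of fluorescence rise (480/530 nm, 10 min) after adding Red/Green BODIPY PC-A2 mixed with DOPC/DOPG/cholesterol liposomes. Recombinant His-tagged human enzyme, bacterially expressed, was first exposed to inhibitor (2 nM–50 μM final) for 4 min in 50 mM Tris pH 8.5, 100 mM NaCl, 5 mM glutathione.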

SMILES	pEC50 [1]	pIC50 [2]
CC(NC(=O)C1CCC(F)(F)CC1)C(=O)C(=O)NCC1CC1 (centres unmarked) [FP 173, N-(Cyclopropylmethyl)-3-[(4,4-difluorocyclohexyl)formamido]-2-oxobutanamide]	< 5.00	5.00 to 6.00
CC(NC(=O)C1CC(F)(F)C1)C(=O)C(=O)NCC1CC1 (centres unmarked) [FP 174, N-(Cyclopropylmethyl)-3-[(3,3-difluorocyclobutyl)formamido]-2-oxobutanamide]	< 5.00	5.00 to 6.00
COCC(=O)N(c1ccccc1OC)C(C)C(=O)C(=O)NCc1cccc(Cl)c1 (centres unmarked) [FP 175, N-[(3-Chlorophenyl)methyl]-3-[2-methoxy-N-(2-methoxyphenyl)acetamido]-2-oxobutanamide]	5.00 to 6.00	> 6.00
CC(C(=O)C(=O)NCC1CCCCC1)N(C)C(=O)c1ccccc1 (centres unmarked) [FP 176, N-(Cyclohexylmethyl)-3-(N-methyl-1-phenylformamido)-2-oxobutanamide]	> 6.00	> 6.00
CC(NC(=O)c1ccccc1)C(=O)C(=O)NCC1CC1 (centres unmarked) [FP 178, N-(Cyclopropylmethyl)-2-oxo-3-(phenylformamido)butanamide]	5.00 to 6.00	> 6.00
CC(NC(=O)c1ccccc1)C(=O)C(=O)NCC1CCCCC1 (centres unmarked) [FP 179, N-(Cyclohexylmethyl)-2-oxo-3-(phenylformamido)butanamide]	> 6.00	> 6.00
CC(NC(=O)c1ccccc1)C(=O)C(=O)NCC1CCCC1 (centres unmarked) [FP 180, N-(Cyclopentylmethyl)-2-oxo-3-(phenylformamido)butanamide]	5.00 to 6.00	> 6.00
CC(NC(=O)c1ccccc1)C(=O)C(=O)NCC1CCC1 (centres unmarked) [FP 181, N-(Cyclobutylmethyl)-2-oxo-3-(phenylformamido)butanamide]	5.00 to 6.00	> 6.00
CC(C)CNC(=O)C(=O)C(C)NC(=O)c1ccccc1 (centres unmarked) [FP 182, N-(2-Methylpropyl)-2-oxo-3-(phenylformamido)butanamide]	< 5.00	> 6.00
CCC(NC(=O)c1ccccc1)C(=O)C(=O)NC1CC1 (centres unmarked) [FP 183, N-Cyclopropyl-2-oxo-3-(phenylformamido)pentanamide]	< 5.00	5.00 to 6.00
CCCC(NC(=O)c1ccccc1)C(=O)C(=O)NC1CC1 (centres unmarked) [FP 184, N-Cyclopropyl-2-oxo-3-(phenylformamido)hexanamide]	< 5.00	> 6.00
CC(NS(=O)(=O)c1ccccc1)C(=O)C(=O)NCC1CC1 (centres unmarked) [FP 187, 3-Benzenesulfonamido-N-(cyclopropylmethyl)-2-oxobutanamide]	5.00 to 6.00	> 6.00
CC(NS(=O)(=O)Cc1ccccc1)C(=O)C(=O)NCC1CC1 (centres unmarked) [FP 188, N-(Cyclopropylmethyl)-2-oxo-3-(phenylmethanesulfonamido)butanamide]	< 5.00	> 6.00
Cc1ccc(S(=O)(=O)NC(C)C(=O)C(=O)NCC2CC2)cc1 (centres unmarked) [FP 189, N-(Cyclopropylmethyl)-3-(4-methylbenzenesulfonamido)-2-oxobutanamide]	5.00 to 6.00	> 6.00
Cc1ccccc1S(=O)(=O)NC(C)C(=O)C(=O)NCC1CC1 (centres unmarked) [FP 190, N-(Cyclopropylmethyl)-3-(2-methylbenzenesulfonamido)-2-oxobutanamide]	5.00 to 6.00	> 6.00
CC(NS(=O)(=O)c1ccccc1Cl)C(=O)C(=O)NCC1CC1 (centres unmarked) [FP 191, 3-(2-Chlorobenzenesulfonamido)-N-(cyclopropylmethyl)-2-oxobutanamide]	5.00 to 6.00	> 6.00
CC(C(=O)C(=O)NCC1CCCCC1)N(C=O)c1cc[nH]c(=O)c1 (centres unmarked) [FP 192, N-(Cyclohexylmethyl)-2-oxo-3-[N-(2-oxo-1,2-dihydropyridin-4-yl)formamido]butanamide]	< 5.00	> 6.00
O=CN(CC(=O)C(=O)NCC1CC1)Cc1ccccc1 [FP 193, 3-(N-Benzylformamido)-N-(cyclopropylmethyl)-2-oxopropanamide]	> 6.00	> 6.00
CNC(=O)C(=O)C(CC(C)C)N(C=O)Cc1ccccc1 (centres unmarked) [FP 195, 3-(N-Benzylformamido)-N,5-dimethyl-2-oxohexanamide]	5.00 to 6.00	> 6.00
CNC(=O)C(=O)C(CC1CCC1)N(C=O)Cc1ccccc1 (centres unmarked) [FP 196, 3-(N-Benzylformamido)-4-cyclobutyl-N-methyl-2-oxobutanamide]	5.00 to 6.00	> 6.00

SMILES	pEC50 [1]	pIC50 [2]
CNC(=O)C(=O)C(C(C)C)N(C=O)Cc1ccccc1 (centres unmarked) [FP 197, 3-(N-Benzylformamido)-N,4-dimethyl-2-oxopentanamide]	< 5.00	> 6.00
CC(C)C(C(=O)C(N)=O)N(C=O)Cc1ccccc1 (centres unmarked) [FP 198, 3-(N-Benzylformamido)-4-methyl-2-oxopentanamide]	< 5.00	5.00 to 6.00
CC(C)CC(C(=O)C(N)=O)N(C=O)Cc1ccccc1 (centres unmarked) [FP 199, 3-(N-Benzylformamido)-5-methyl-2-oxohexanamide]	< 5.00	> 6.00
CC(C(=O)C(=O)NCC1CCCC1)N(C=O)Cc1ccccc1 (centres unmarked) [FP 200, 3-(N-Benzylformamido)-N-(cyclopentylmethyl)-2-oxobutanamide]	> 6.00	> 6.00
CC(C(=O)C(=O)NCC1CCC1)N(C=O)Cc1ccccc1 (centres unmarked) [FP 201, 3-(N-Benzylformamido)-N-(cyclobutylmethyl)-2-oxobutanamide]	> 6.00	> 6.00
O=C(NCC1CC1)C(=O)C1CCC(=O)N1CC1CCCCC1 (centres unmarked) [FP 202, 2-[1-(Cyclohexylmethyl)-5-oxopyrrolidin-2-yl]-N-(cyclopropylmethyl)-2-oxoacetamide]	> 6.00	> 6.00
O=C(NCC1CC1)C(=O)C1CCC(=O)N1Cc1ccc(Cl)cc1 (centres unmarked) [FP 203, 2-{1-[(4-Chlorophenyl)methyl]-5-oxopyrrolidin-2-yl}-N-(cyclopropylmethyl)-2-oxoacetamide]	> 6.00	> 6.00
O=C(NCC1CC1)C(=O)C1CCCC(=O)N1Cc1ccccc1 (centres unmarked) [FP 204, 2-(1-Benzyl-6-oxopiperidin-2-yl)-N-(cyclopropylmethyl)-2-oxoacetamide]	5.00 to 6.00	> 6.00
CC(NC(=O)c1ccncc1)C(=O)C(=O)NCC1CCCCC1 (centres unmarked) [FP 205, N-(Cyclohexylmethyl)-2-oxo-3-[(pyridin-4-yl)formamido]butanamide]	5.00 to 6.00	> 6.00
CC(NC(=O)C1CCN(CC(F)(F)F)CC1)C(=O)C(=O)NCC1CCCCC1 (centres unmarked) [FP 206, N-(Cyclohexylmethyl)-2-oxo-3-{[1-(2,2,2-trifluoroethyl)piperidin-4-yl]formamido}-butanamide]	5.00 to 6.00	> 6.00
CCCC(NC(=O)CN(C)C)C(=O)C(=O)NCC1CCCCC1 (centres unmarked) [FP 207, N-(Cyclohexylmethyl)-3-[2-(dimethylamino)acetamido]-2-oxohexanamide]	5.00 to 6.00	> 6.00
CCC(NC(=O)c1ccncc1)C(=O)C(=O)NCC1CCCCC1 (centres unmarked) [FP 208, N-(Cyclohexylmethyl)-2-oxo-3-[(pyridin-4-yl)formamido]pentanamide]	< 5.00	> 6.00
Cc1ccncc1C(=O)NC(C)C(=O)C(=O)NCC1CCCCC1 (centres unmarked) [FP 209, N-(Cyclohexylmethyl)-3-[(4-methylpyridin-3-yl)formamido]-2-oxobutanamide]	5.00 to 6.00	> 6.00
CCC(NC(=O)c1cccnc1)C(=O)C(=O)NCC1CCCCC1 (centres unmarked) [FP 210, N-(Cyclohexylmethyl)-2-oxo-3-[(pyridin-3-yl)formamido]pentanamide]	5.00 to 6.00	> 6.00
CCC(NC(=O)c1cnccc1C)C(=O)C(=O)NCC1CCCCC1 (centres unmarked) [FP 211, N-(Cyclohexylmethyl)-3-[(4-methylpyridin-3-yl)formamido]-2-oxopentanamide]	5.00 to 6.00	> 6.00
COc1cccc(Cl)c1C(=O)NC(C)C(=O)C(=O)NCC1CC1 (centres unmarked) [FP 212, 3-[(2-Chloro-6-methoxyphenyl)formamido]-N-(cyclopropylmethyl)-2-oxobutanamide]	5.00 to 6.00	> 6.00
CCC(NC(=O)CN1CCCCC1)C(=O)C(=O)NCC1CCCCC1 (centres unmarked) [FP 213, N-(Cyclohexylmethyl)-2-oxo-3-[2-(piperidin-1-yl)acetamido]pentanamide]	5.00 to 6.00	> 6.00
CCCC(NC(=O)CN1CCN(C)CC1)C(=O)C(=O)NCC1CCCCC1 (centres unmarked) [FP 214, N-(Cyclohexylmethyl)-3-[2-(4-methylpiperazin-1-yl)acetamido]-2-oxohexanamide]	< 5.00	5.00 to 6.00
CC(NS(=O)(=O)c1ccc(Cl)cc1)C(=O)C(=O)NCC1CC1 (centres unmarked) [FP 215, 3-(4-Chlorobenzenesulfonamido)-N-(cyclopropylmethyl)-2-oxobutanamide]	5.00 to 6.00	> 6.00
CCC(NS(=O)(=O)c1ccccc1)C(=O)C(=O)NCC1CC1 (centres unmarked) [FP 216, 3-Benzenesulfonamido-N-(cyclopropylmethyl)-2-oxopentanamide]	5.00 to 6.00	> 6.00
